Experiments:
[1] = Simulated Hand Stirring Test (calcium sedimentation after stirring a unit dose in water); assay type: physicochemical; conditions: for calcium base reacts fast enough with the acid for minimal calcium sedimentation: with appropriate amount of sugar, stirred for less than about 60 seconds by hand; for Sweetener/calcium ratio to pass 60-second Simulated Hand Stirring Test: calcium hydroxide providing 300 mg calcium per unit dose, citric acid 0.96 gram per unit dose, 200 ml water at 25° C., 200 rpm; for Acid required/Dose: citric acid to pass 60-second test
Protocol: A magnetic stir bar (9.5×50.8 mm, catalogue no. 58948-980, VWR Spinbar®, USA) is placed in a 250-ml Pyrex® beaker (catalogue no. 1000-250, Corning, USA) to which 200 ml of water at 25° C. is added. The beaker is placed on top of a digital magnetic stirrer (Cole Parmer, USA) and the speed set at 200 rpm. A unit dose of a powdered mix is then added to the water and stirred for a given period of time, after which the beaker is removed and calcium sedimentation evaluated on a 1-10 scale, with 1 denoting no visible calcium sedimentation. A rating of 2 denoting very minimal calcium sedimentation, which is visually acceptable, is set as the minimum dissolution criterion.
Hereafter, this test will be referred to as the “Simulated Hand Stirring Test”. When the stirring time is 60 seconds, the test is referred to as the “60-second Simulated Hand Stirring Test”.

Solubility in water = assay type: physicochemical
[2] = cited from earlier work

For `[Ca+2].[OH-].[OH-]` [Calcium hydroxide], the “calcium base reacts fast enough with the acid for minimal calcium sedimentation” value [1] was “will react fast enough”.
In the case of `[O]=[Ca]` [Calcium oxide, reference compound], the “calcium base reacts fast enough with the acid for minimal calcium sedimentation” value [1] is reported as “may not react fast enough”.
For `O=C(CO)[C@@H](O)[C@H](O)[C@H](O)CO` [Fructose], the “Sweetener/calcium ratio to pass 60-second Simulated Hand Stirring Test” value (shortened to “Sweetener/calcium ratio”) [1] was 45, the “Acid required/Dose” value ([1]; fructose On Mesh 20 (> 841 micron), 22 g fructose/dose, 500 mg calcium/dose) was 2.0 and the “Acid required/Dose” value ([1]; fructose On Mesh 20, 6 g fructose/dose, 150 mg calcium/dose) was 0.5. For the same compound, the “Acid required/Dose” value ([1]; fructose On Mesh 20, 16 g fructose/dose, 300 mg calcium/dose) was 1.0, the “Acid required/Dose” value ([1]; fructose Through mesh 40 (< 420 micron), 22 g fructose/dose, 500 mg calcium/dose) was 2.0 and the “Acid required/Dose” value ([1]; fructose Through mesh 40, 6 g fructose/dose, 150 mg calcium/dose) was 0.5. The “Acid required/Dose” value ([1]; fructose Through mesh 40, 16 g fructose/dose, 300 mg calcium/dose) was 1.0.
In the case of `O=C(O)/C=C/C(=O)O` [Fumaric acid, reference compound], the “times more soluble than calcium hydroxide” value (Solubility in water) is given as “about four”, the “calcium sedimentation with fumaric acid as the acid” value ([1]; 555 mg calcium hydroxide (300 mg calcium), 26 grams sucrose, fumaric acid at three times the stoichiometric amount) is given as “significant calcium sedimentation” and the solubility in water [2] is given as 0.63 gram per 100 ml of water.
For `OC[C@@H](O)[C@@H](O)[C@H](O)[C@@H](O)CO` [Sorbitol, reference compound], the “Sweetener/calcium ratio” value [1] was 95.
In the case of `OC[C@H]1O[C@@](CO)(O[C@H]2O[C@H](CO)[C@@H](O)[C@H](O)[C@H]2O)[C@@H](O)[C@@H]1O` [Sucrose], the “Sweetener/calcium ratio” value [1] is reported as 60.
With `O=C(O)CC(O)C(=O)O` (stereo not drawn) [malic acid] the “times more soluble than calcium hydroxide” value (Solubility in water) was “about 300 times”.
